# From patent US10682310B2, “Therapeutic compounds and formulations for intranasal delivery” (priority 2015, dated 2020)
# Values joined by “and” are separate entries in the source; they are usually repeats but may differ in a detail not shown here. Identical values can stand only once. Counter-ions that a name gives are not always drawn.
# Assays:
# [1] = tested on: MDCKII-wt monolayer; test: Membrane permeation across MDCKII-wt monolayers (Transwell)
# Method: (§1) In vitro permeation studies were also performed on prodrug/enzyme mixtures prepared at various prodrug and enzyme concentrations. […] The experiments were carried out as follows. Maden Darby Canine Kidney-II wild type (MDCK-IIwt) cells were plated on thin membranes in a six well Transwell apparatus. Following confluence and washing, assay buffer (PBS, pH 7.4) was introduced into the basal side of the membrane. At time zero, solutions of various concentrations of prodrug were combined with 0.25 U/ml of A.O protease and introduced on the […] side of the membrane. Aliquots were then taken, with replacement, from both the basal and apical sides, and assayed for both drug and prodrug. The integrity of the membranes throughout the experiment was confirmed by transepithelial resistance (TEER) and inulin permeation measurements.
# (§2) Following previously published procedures (Kapoor M, et al., AAPS J, 2014, 16, 3, 577-585; and Kapoor M, et al., Mol Pharm, 2013, 10, 9, 519-3524), Madin Darby canine kidney II wild type (MDCKII-wt: passages between 10 and 20) cells were cultured and grown as monolayers in 12-well Transwell plates ([…] pore size, polyester, Corning). Transepithelial electrical resistance (TEER) was measured to assure membrane integrity just prior to conversion/permeation experiments. TEER and a Lucifer yellow dye permeability assay were used to reassess monolayer integrity at the conclusion of each experiment.
# (§3) In separate experiments, solutions containing 900 μM AVFp or AVFm were rapidly mixed with A.O. protease (4 U/mL) in assay buffer (pH 7.4 at 32° C.), and administered at time zero on the apical side of MDCKII-wt monolayers cultured in a 12-well Transwell plate (Kapoor M, et al., AAPS J, 2014, 16, 3, 577-585; and Kapoor M, et al., Mol Pharm, 2013, 10, 9, 519-3524).
# (§4) To assess transport of MDZ through the MDCKII-wt monolayer membrane, MDZ, 55 μM (S=1) was introduced on the apical side of the monolayer in a 12-well Transwell, and accumulation of MDZ on the basal side was assayed as a function of time.
# [2] = tested on: A.O. protease (Aspergillus Oryzae); test: Enzyme kinetics of prodrug conversion by A.O. protease (HPLC, integrated Michaelis-Menten fit); assay type: biochemical; conditions: for conversion of prodrug to DZP: 480 μM prodrug, A.O. protease 2-8 U/mL; for conversion of prodrug to DZP / Km / Vmax: assay buffer pH 7.4, 32° C.; for extent of conversion by A.O. protease: chirally pure prodrug; for catalytic efficiency as Vmax/(U/mL of A.O. protease): pH 7.4, 32° C.
# Method: Enzyme Kinetics. To determine the enzyme kinetic parameters KM and Vmax for a prodrug/enzyme system, various concentrations of prodrug were incubated in assay buffer, pH 7.4 containing A.O. protease, at 32° C., for a fixed time period t, at which point the reaction was stopped using methanol as an enzyme denaturant. […] The reactions were carried out to times when there was already substantial conversion. Concentrations of product, Cd(t) were fit against initial prodrug concentrations, Cp (0), using the integrated Michaelis-Menten equation: Cd(t)+KM ln[1−Cd(t)/Cp(0)]=Vmaxt (1) Fitting was carried out using the Matlab nlinfit function (Mathworks).
# AVFm and AVFp (each at 480 μM) were incubated with A.O. protease (2-8 U/mL) in assay buffer over various time intervals in assay buffer pH 7.4 at 32° C.
# The Michaelis Menten parameters for AVFp reactions were determined by carrying out reactions for t=5 min in solutions containing A.O. protease.
# The extent of reaction was determined after t=12 min with MDZ-pro incubated, at different concentrations, in assay buffer with 4 U/ml A.O. protease.
# [3] = tested on: A.O. protease; test: Conversion of prodrug by A.O. protease on apical side of MDCKII-wt monolayers, supersaturated drug; assay type: in vitro ADME, Aspergillus Oryzae; conditions: for precipitates of supersaturated drug formed from prodrug/enzyme: apical compartment after prodrug/A.O. protease administration
# Method: The same was also shown for MDZ-pro. The experiments were carried out as follows.
# Appropriate molar concentrations of MDZ-pro equivalent to supersaturated MDZ solution were incubated with the converting enzyme in assay buffer, pH 7.4 at 32° C. (nasal temperature). Supersaturation potential, S, was calculated as the ratio between the molar concentration of administered MDZ-pro and the molar concentration of saturated MDZ:
# Rapidly mixed solutions of chirally pure MDZ-pro and A.O protease were administered onto the apical side of MDCKII-wt monolayers and MDZ-pro, and MDZ concentrations were analyzed on both the apical and basal sides as a function of time. An example of prodrug and drug kinetics in the apical compartment is shown in FIG. 5b (MDZ-pro 326 μM, A.O. protease 16 U/mL). Rapid conversion of prodrug (complete within 30 min) was followed by an extended residence of supersaturated drug in the apical chamber, with supersaturation reached in less than 5 min. […] Apical concentrations of MDZ were close to those predicted, based on a two compartment model with input due to enzymatic conversion of MDZ-pro to MDZ, with assumed rate constant kconv=Vmax/KM.
# [4] = MDZ equilibrium solubility in assay buffer; assay type: physicochemical; conditions: aqueous buffer, thermodynamic from solid; assay buffer pH 7.4, 32° C.
# Method: Equilibrium solubility of MDZ in assay buffer was determined at three temperatures: 25, 32 and 37° C. There was essentially no effect of temperature on drug thermodynamic solubility within this temperature range.
# [5] = tested on: MDCKII-wt monolayers; test: Monolayer intactness by TEER and Lucifer yellow permeability after 2 h exposure; conditions: A.O. protease 1-16 U/mL
# Method: as §2
# [6] = Membrane permeation across MDCKII-wt monolayers (Transwell); conditions: dog, MDCK
# Method: as §1, §2, §3, §4
# [7] = AVFp to DZP, 0.25 U/ml A.O. protease, t=5 min
# [8] = MDZ-pro 326 μM, A.O. protease 16 U/mL, apical compartment
# [9] = MDZ-pro to MDZ, 4 U/ml A.O. protease, t=12 min, estimates (s.e.m.)
structure (smiles),measurement,setting,value
"CN(C(=O)CNC(=O)[C@@H](N)CCCCN)c1ccc(Cl)cc1C(=O)c1ccccc1 [AVF, Avizafone]",permeation of prodrug across the membrane,[1]; AVF/enzyme administered on the apical side,not to permeate the membrane significantly
same,permeation of prodrug across the monolayer,"[1]; in the absence of enzyme, AVF pure or mix (data not shown)",negligible permeation
CN(C(=O)CNC(=O)[C@@H](N)CCCCN)c1ccc(Cl)cc1C(=O)c1ccccc1 [AVFm],conversion of prodrug to DZP,[2],~70%
"CN(C(=O)CNC(=O)[C@@H](N)CCCCN)c1ccc(Cl)cc1C(=O)c1ccccc1 [AVFp, Avizafone Hydrochloride]",conversion of prodrug to DZP,[2]; Hydrochloride,100%
same,Km,[2]; [7],3.38 ± 0.34 mM
same,Vmax,[2]; [7],0.518 ± 0.030 mM/min
same,extent of conversion by A.O. protease,[2],complete conversion
same,catalytic efficiency as Vmax/(U/mL of A.O. protease),[2],2.07 mM/min/(U/ml)
same,rate and amount of DZP permeation compared with enantiomeric mixture AVFm,"[1]; 900 μM prodrug, A.O. protease 4 U/mL, apical, pH 7.4, 32° C., each time point",greater
"CN1C(=O)CN=C(c2ccccc2)c2cc(Cl)ccc21 [DZP, diazepam]",precipitates of supersaturated drug formed from prodrug/enzyme,[3],no evidence of formation of DZP precipitates
"Cc1ncc2n1-c1ccc(Cl)cc1C(c1ccccc1F)=NC2 [MDZ, midazolam]",precipitates of supersaturated drug formed from prodrug/enzyme,[3],none were found
same,solubility thermodynamic,[4],55 µM and 15.5 µg/mL
same,% TEER values,[5],unaffected
same,clearance CL of the membrane,"[1]; MDZ 55 μM (S=1) apical, 12-well Transwell, two compartment model fit",0.11 ± 0.01 mL/h
same,Papp A→B at 55 μM,[6],26.5 ×10⁻⁶ cm/s
"Cc1ncc(CNC(=O)[C@@H](N)CCCCN)n1-c1ccc(Cl)cc1C(=O)c1ccccc1F [MDZ-pro, Midazolam L-Lysine Prodrug]",time to complete conversion of prodrug,[3]; [8],≤ 30 min
same,time to reach supersaturation,[3]; [8],less than 5 min
same,% TEER values,[5],unaffected
same,Km,[2]; [9],5.86 ± 0.83 mM
same,Vmax,[2]; [9],0.233 ± 0.022 mM/min
same,extent of conversion by A.O. protease,[2],complete conversion
same,catalytic efficiency as Vmax/(U/mL of A.O. protease),[2],0.0582 mM/min/(U/ml)
same,conversion via endogenous enzymes,"[1]; MDZ-pro alone (without enzyme), apical, 2 h, up to 2 mM",negligible conversion
same,prodrug permeation through MDCKII-wt monolayers,"[1]; MDZ-pro alone (without enzyme), apical, 2 h, up to 2 mM initial prodrug concentration",negligible prodrug permeation
